Data on two compounds can be found in patent US20050245529A1 (Boehringer Ingelheim International GmbH, priority 2004, published 2005).

The structures appear in SMILES notation.

This experiment deals with T1, hMCH-1R (Homo sapiens, UniProt Q99705).
T1 construct: expressed in transfected cells; host or cells: CHO/Galpha 16 cells, stably transfected; membranes used
As to the kind of experiment: MCH-1 receptor binding test. The following applies: 125I-MCH binding, membranes from CHO/Galpha 16 cells stably transfected with human hMCH-1R. As for the experimental part: Membranes from CHO/Galpha 16 cells stably transfected with human hMCH-1R are resuspended using a syringe (needle 0.6×25 mm) and diluted in test buffer (50 mM HEPES, 10 mM MgCl2, 2 mM EGTA, pH 7.00; 0.1% bovine serum albumin (protease-free), 0.021% bacitracin, 1 μg/mL aprotinin, 1 μg/mL leupeptin and 1 μM phosphoramidone) to a concentration of 5 to 15 μg/mL. […] After the incubation the reaction is filtered using a cell harvester through 0.5% PEI treated fiberglass filters (GF/B, Unifilter Packard). The membrane-bound radioactivity retained on the filter is then determined after the addition of scintillator substance (Packard Microscint 20) in a measuring device (TopCount of Packard). […] The analysis of the concentration binding curve is carried out on the assumption of one receptor binding site.

T1 sequence (Q99705 whole entry): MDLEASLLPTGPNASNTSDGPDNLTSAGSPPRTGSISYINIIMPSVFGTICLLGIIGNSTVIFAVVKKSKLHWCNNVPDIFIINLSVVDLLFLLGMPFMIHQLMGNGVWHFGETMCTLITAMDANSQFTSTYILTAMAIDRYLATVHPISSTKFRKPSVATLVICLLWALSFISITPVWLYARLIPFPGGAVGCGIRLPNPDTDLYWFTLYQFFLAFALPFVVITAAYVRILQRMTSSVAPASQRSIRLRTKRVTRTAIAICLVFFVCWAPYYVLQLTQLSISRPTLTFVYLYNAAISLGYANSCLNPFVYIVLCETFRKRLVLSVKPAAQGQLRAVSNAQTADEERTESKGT

In general, IC50 refers to the concentration needed to halve the response being measured. `NC(=O)C1CCN([C@H]2CCN(c3ccc(C#Cc4ccc(-c5ccc(Cl)cc5)cn4)cn3)C2)CC1` [Example 6.3, (S)-1-(1-{5-[5-(4-chlorophenyl)pyridin-2-ylethynyl]pyridin-2-yl}pyrrolidin-3-yl)piperidin-4-carboxylic acid amide]: the IC50 worked out at 3.7 nM.

Compound `CCCN(CC1CC1)[C@H](C)/C=C(\C)c1ccc(C#Cc2ccc(-c3ccc(Cl)cc3)cn2)cc1` [Example 15.5, ((E)-(R)-3-{4-[5-(4-chlorophenyl)pyridin-2-ylethynyl]phenyl}-1-methylbut-2-enyl)cyclopropylmethylpropylamine] came in with a half-inhibitory concentration (IC50) of 25 nM.
